From patent US5610185A, “Method for the treatment of hyperproliferative epithelial skin diseases by topical application of hydroxylated aromatic protein cross-linking compounds” (The United States of America as represented by the …, priority 1995, dated 1997)

Assays:
[1] = test system: SQCC-Y1 human squamous carcinoma cells; assay: Cornified envelope (cross-linked protein) assay, SQCC-Y1 cells; type: cell-based; details: for cross-linked protein production by MC derivatives: SQCC-Y1 cells, FIG. 11, preliminary; for potency in cross-linking: of 15 aromatic compounds, FIG. 12
308 and SQCC-Y1 cells = assay: Cross-linked protein envelopes by tyrosine kinase inhibitors (Table II); type: cell-based; details: concentrations within the range for inhibition of tyrosine kinases
Protocol: (§1) The assay measures insoluble cross-linked protein envelopes as described (Hough-Monroe et al. Analytical biochem., 199, 25-28, 1991), with modifications as follows. Cornified envelopes were prepared by scraping monolayers into 2% sodium dodecylsulphate (SDS), 20 mM dithiothreitol (DTT) in phosphate buffered saline (PBS). Unattached cells were pelleted from medium and were resuspended in SDS/DTT and pooled with attached cells. Samples were boiled for 10 mins. Cornified envelope samples were examined under the microscope using phase contrast optics or were applied to an RC60 membrane (Schleicher and Schuell, Keene, N.H.) on a 96-well dot-blot apparatus attached to a vacuum. Samples were washed three times with SDS/DTT and the resultant protein spots on RC60 membrane were fixed and stained as described. Sports were excised and eluted with 1% NH3 OH concentrated solution, 66% methanol (200 ul) overnight. Absorbance of eluate was measured on a Titertek plate reader at 600 nm.
A range of tyrosine kinase inhibitors was tested for ability to produce cross-linked protein envelopes in 308 and SQCC-Y1 cells. All inhibitors were obtained commercially from LC Laboratories, Woburn, Mass. Concentrations used were within the range for inhibition of tyrosine kinases.

transglutaminase = details: Dlugosz and Yuspa, Cancer Res., 51, 4677-4684, 1991; cited from earlier work
[2] = test system: primary mouse keratinocytes; assay: Cornified envelope (cross-linked protein) assay, primary mouse keratinocytes; type: cell-based; details: 4° C. and 37° C., 48 hours
Protocol: FIGS. 3A and 3B. A: Time course for cornification of primary mouse keratinocytes in response to MC. Boxes represent […] Ca^2+, triangles represent 100 μM MC, 1.4 mM Ca^2+, and solid circles represent 1 mM MC, 1.4 mM Ca^2+. […] Cells were incubated in medium with 1.4 mM Ca^2+ and MC for 4 hours, then were incubated with MTT (0.5 mg/ml in medium) for a further 4 hours before determination of formazan production.
Primary mouse keratinocytes were isolated from BALB/c newborn mouse skin. Primary keratinocytes, the benign neoplastic keratinocyte cell lines 308 and SP-1 (Strickland et al, Cancer Res., 48, 165-169, 1988) and the mouse squamous cell carcinoma line 1-7 (Greenhalgh et al., Proc. Natl. Acad. Sci., 87, 643-647, 1990) were grown in Eagle's minimal essential medium with 8% fetal calf serum (FCS) (chelexed) and penicillin 20 iu/ml, streptomycin 20 ug/ml (P/S). Unless otherwise indicated, the Ca^2+ concentration in medium was adjusted to 0.05 mM (Hennings et al., Cells, 19, 245-254, 1980). A431 human epidermoid carcinoma cells were obtained from ATCC, Rockville, Md., and were routinely passaged in DMEM with 10% FCS, P/S, glutamine (2 mM) and pyruvate (1 mM). SQCC-Y1 human squamous carcinoma cells and non-tumorigenic HPV 18 and SV 40 infected human keratinocytes were kindly donated by Dr. James Rheinwald of Harvard University, Boston, Mass. and Dr. Richard Schlegel of Georgetown University, Washington D.C. respectively. Human cells were cultured in DMEM/Ham's F12 1:1, 10% FCS, P/S and epidermal growth factor 10 ng/ml.
Primary mouse keratinocytes were incubated with MC for 0, 0.5, 1, 4 and 48 hours and were processed as follows.
as §1
Cells were seeded at low density and were treated with MC for 3 days. Cells were then counted and increase in cell number was compared to untreated controls, or cells were processed for cross-linked protein.
Inhibitors were added 30 mins before MC or stsp (FIG. 6). Cross-linked protein was measured by the cornified envelope assay, described in Example 2.

SMILES | cross-linked protein production by MC derivatives [1] | potency in cross-linking [1] | other results
COC(=O)c1cc2ccc(O)c(O)c2cn1.Cl [67F-36-A, 7,8-Dihydroxyisoquinoline-3-carboxylic acid methyl ester hydrochloride] | inactive | – | –
O=C(O)c1cc(N(Cc2ccccc2O)Cc2cc(O)ccc2O)ccc1O [lavendustin A] | – | – | ability to induce cross-linking (308 and SQCC-Y1 cells): unable to induce cross-linking
COC(=O)c1ccc2c(O)c(O)ccc2c1 [67G-146-A, 5,6-Dihydroxy-2-naphthoic acid methyl ester] | active | most potent | cross-linked protein production by MC derivatives ([1]; listed as 67G-146A): clearly exhibit protein cross-linking activity
CN[C@@H]1C[C@H]2O[C@@](C)([C@@H]1OC)n1c3ccccc3c3c4c(c5c6ccccc6n2c5c31)C(=O)NC4 [staurosporine, reference compound] | – | – | transglutaminase activity (literature) (transglutaminase): increases TGase activity; cross-linked protein at 4° C. and 37° C. [2]: temperature dependent
O=C(C=Cc1cc(O)ccc1O)OCCc1ccccc1 [67H-124-A, 2.5-dihydroxycinnamic acid β-phenylethyl ester] | clearly exhibit protein cross-linking activity | most potent | –
O=C(C=Cc1cc(O)c(O)cc1O)OCCc1ccccc1 [67H-98-A, 2,4,5-Trihydroxycinnamic acid β-phenylethyl ester] | active | most potent | cross-linked protein production by MC derivatives ([1]; listed as 67H-98A): clearly exhibit protein cross-linking activity
O=C(CCc1ccc(O)c(O)c1)OCCc1ccccc1 [67H-69-A, 3-(3,4-Dihydroxyphenyl) propanoic aid β-phenylethyl ester] | active | most potent | cross-linked protein production by MC derivatives ([1]; listed as 67H-69A): clearly exhibit protein cross-linking activity
O=C(/C=C/c1ccc(O)c(O)c1)OCCc1ccccc1 [67H-42-A, Caffeic acid β-phenylethyl ester] | inactive | – | –
COC1C=CC=C(C)C(=O)NC2=CC(=O)C=C(C2=O)C(OC)C(C)CC(OC)C(OC)C(C)C=C(C)C1OC(N)=O (centres unmarked) [herbimycin A] | – | – | ability to induce cross-linking (308 and SQCC-Y1 cells): unable to induce cross-linking
